Assay: Peptide stability in fresh culture media (W0, MV, EMM)
Type: physicochemical
Experimental: Stability of the peptides was analyzed in freshly prepared media and in the supernatant from yeast cultivations in W0 and MV media. For this purpose, the yeast cultivations were initiated in 10 mL media with an optical density (OD600nm) of 1 and were cultivated for 24 h at 30 °C with continuous shaking. Subsequently, 2 mL of the culture was sampled and centrifuged at 5000 × g for 5 min. The resulting supernatant was removed and stored at -20 °C until LC–MS analysis. To study the time-dependent peptide stability, yeast supernatant and fresh culture medium with a volume of 900 µL each were spiked with 100 µL of a synthetic peptide mixture containing 10 µM of each α-factor and CSF in HPLC-grade water with 0.125% FA. The samples were analyzed immediately after sampling and subsequently over seven 3h intervals, in order to determine the remaining peptide concentrations. […]
The stability of the peptides also depends on their rate of enzymatic conversation through the action of proteases or peptidases (see review) secreted by cells during the cultivation. Therefore, the concentration of a peptide mixture (containing both α-factor and CSF) was monitored over a period of at least 18 h in the presence of fresh culture media or the supernatant of cultured yeast cells (harvested after 24 h). […]

Peptide stability in EMM media (typical EMM media used for S. pombe, without and with 50 % ACN, LC-MS/MS, Fig. S7) | Concentration over 18 h in fresh culture media (fresh W0 pH = 5.6 or MV pH = 6.5, 1 µM peptide, glass vessels, 3 h intervals, LC-MS/MS normalized peak area, Fig. S5) | Substance
demonstrated |  | TYADFL RAYQSW NTFVNP DRPNL [P-factor, pheromone from S. pombe, obtained from Davids Biotechnologie]
 | remained nearly constant | WHWLQLKPQPMY [α-factor, signal peptide (pheromone) from S. cerevisiae, ordered from UMEX GmbH]

From article PMC11876276, “LC–MS/MS quantification of bacterial and fungal signal peptides via direct injection: a case study of cross-kingdom communication” (Analytical and Bioanalytical Chemistry, 2025)
